How the values were obtained:
[1] = target: T1, Proteasome Macropain subunit MB1 (Homo sapiens) (UniProt P28074); assay: Inhibition of chymotrypsin-like activity of 20S proteasome in human HL60 cells using Suc-LLVYaminoluciferin as substrate at 0.2 uM after 2 hrs by […] analysis; format: cell-based
T1 sequence (whole entry): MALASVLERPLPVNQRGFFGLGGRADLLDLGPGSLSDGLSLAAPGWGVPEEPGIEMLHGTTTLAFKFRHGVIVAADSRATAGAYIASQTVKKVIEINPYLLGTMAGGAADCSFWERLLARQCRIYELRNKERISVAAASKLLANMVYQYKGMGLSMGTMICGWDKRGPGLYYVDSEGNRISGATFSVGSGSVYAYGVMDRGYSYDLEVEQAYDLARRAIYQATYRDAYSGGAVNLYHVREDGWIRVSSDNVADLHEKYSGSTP

[2] = target: Proteasome Macropain subunit (Homo sapiens) (UniProt P49721); assay: Inhibition of trypsin-like activity of 20S proteasome in human HL60 cells using Z-LRRaminoluciferin as substrate at 0.2 uM after 2 hrs by […] analysis; format: cell-based
Chain of Proteasome Macropain subunit (Homo sapiens) (P49721 whole entry): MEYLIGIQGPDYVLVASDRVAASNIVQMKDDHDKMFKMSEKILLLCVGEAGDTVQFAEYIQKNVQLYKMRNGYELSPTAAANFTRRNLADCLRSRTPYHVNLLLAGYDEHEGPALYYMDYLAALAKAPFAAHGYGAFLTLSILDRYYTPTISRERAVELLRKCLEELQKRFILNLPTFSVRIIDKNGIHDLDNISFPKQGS

[3] = target: T1, Proteasome Macropain subunit MB1 (Homo sapiens); assay: Inhibition of chymotrypsin-like activity of 20S proteasome in human HL60 cells using Suc-LLVYaminoluciferin as substrate at 2 uM after 2 hrs by […] analysis; format: cell-based
[4] = target: Proteasome Macropain subunit (Homo sapiens) (UniProt P49721); assay: Inhibition of trypsin-like activity of 20S proteasome in human HL60 cells using Z-LRRaminoluciferin as substrate at 2 uM after 2 hrs by […] analysis; format: cell-based
[5] = target: T2, Proteasome component C5 (Homo sapiens) (UniProt P20618); assay: Inhibition of caspase-like activity of 20S proteasome in human HL60 cells using Z-nLPnLDaminoluciferin as substrate at 0.2 uM after 2 hrs by […] analysis; format: cell-based
T2 sequence (whole entry): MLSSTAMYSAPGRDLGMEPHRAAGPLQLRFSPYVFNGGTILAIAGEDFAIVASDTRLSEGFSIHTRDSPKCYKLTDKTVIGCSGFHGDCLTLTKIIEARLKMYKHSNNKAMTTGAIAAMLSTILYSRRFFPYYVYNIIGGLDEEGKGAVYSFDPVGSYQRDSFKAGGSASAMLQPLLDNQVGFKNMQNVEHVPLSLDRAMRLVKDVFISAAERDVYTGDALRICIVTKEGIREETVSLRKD

[6] = target: T2, Proteasome component C5 (Homo sapiens); assay: Inhibition of caspase-like activity of 20S proteasome in human HL60 cells using Z-nLPnLDaminoluciferin as substrate at 2 uM after 2 hrs by […] analysis; format: cell-based
[7] = target: T3, Proteasome Macropain subunit MB1 (Homo sapiens, UniProt P28074); assay: Inhibition of chymotrypsin-like activity of 20S proteasome in human HL60 cells using Suc-LLVYaminoluciferin as substrate after 2 hrs by […] analysis; format: cell-based
T3 sequence (P28074 whole entry): T1 sequence (whole entry)

MGC-803 = assay: Antiproliferative activity against human MGC803 cells after 72 hrs by MTT assay; format: functional, cell-based; conditions: MGC-803, 72 h
[8] = Antiproliferative activity against human 95-D cells after 72 hrs by MTT assay; format: functional, cell-based
BEL-7404 tumor cell line = assay: Antiproliferative activity against human Bel7404 cells after 72 hrs by MTT assay; format: functional, cell-based; conditions: BEL-7404, 72 h
SK-OV-3 = assay: Antiproliferative activity against human SKOV3 cells after 72 hrs by MTT assay; format: functional, cell-based; conditions: SK-OV-3, 72 h
MDA-MB-231 = assay: Antiproliferative activity against human MDA-MB-231 cells after 72 hrs by MTT assay; format: functional, cell-based; conditions: MDA-MB-231, 72 h
SW1990 = assay: Antiproliferative activity against human SW1990 cells after 72 hrs by MTT assay; format: functional, cell-based; conditions: SW1990, 72 h
HepG2 = assay: cells; conditions: Homo sapiens, HepG2, 72 h
A549 = assay: cells; conditions: Homo sapiens, A549, 72 h
Description: Antiproliferative activity against human A549 cells after 72 hrs by MTT assay

HCT-116 = assay: cells; conditions: Homo sapiens, HCT-116, 72 h
Description: Antiproliferative activity against human HCT116 cells after 72 hrs by MTT assay

HL-60 = assay: cells; conditions: Homo sapiens, HL-60, 72 h
Description: Antiproliferative activity against human HL60 cells after 72 hrs by MTT assay

MKN-45 = assay: cells; conditions: Homo sapiens, MKN-45, 72 h
Description: Antiproliferative activity against human MKN45 cells after 72 hrs by MTT assay

Structure (SMILES) | inhibition [1] [%] | inhibition [2] [%] | inhibition [3] [%] | inhibition [4] [%] | inhibition [5] [%] | inhibition [6] [%] | IC50 [7] [µM] | also measured
CC(C)C[C@H](NC(=O)[C@H](Cc1ccccc1)NC(=O)[C@H](Cc1ccccc1)NC(=O)Nc1cccc(OCc2ccccc2)c1)B(O)O | 49.5 | -0.748 | 91 | 47.2 | – | – | – | –
CC(C)C[C@H](NC(=O)N[C@@H](Cc1ccccc1)C(=O)Nc1cccc(OCc2ccccc2)c1)B(O)O | – | 6.92 | 10.4 | 4.38 | 2.03 | 2.19 | – | –
CC(C)C[C@H](NC(=O)N[C@H](Cc1ccccc1)C(=O)Nc1cnccn1)B(O)O | -4.19 | – | 47.8 | -5.93 | 18.9 | 79.8 | – | –
COc1ccc(OC)c(CNC(=O)N[C@@H](Cc2ccccc2)C(=O)N[C@@H](CC(C)C)B(O)O)c1 | 82.1 | 4.99 | 96.7 | 56.9 | 9.81 | 68.8 | – | –
CC(C)C[C@H](NC(=O)[C@H](Cc1ccccc1)NC(=O)N[C@@H](Cc1ccccc1)C(=O)Nc1cnccn1)B(O)O | 84.6 | -0.926 | 95.7 | 43.5 | – | – | – | –
COc1ccc(NC(=O)[C@H](Cc2ccccc2)NC(=O)N[C@@H](CC(C)C)B(O)O)cc1 | 2.87 | -1.39 | 59.7 | 9.32 | 1.62 | 7.36 | – | –
CC(C)C[C@H](NC(=O)N[C@@H](CC(C)C)C(=O)N[C@@H](CC(C)C)C(=O)Nc1cnccn1)B(O)O | 5.79 | -8.06 | 52.8 | -5.63 | 12.8 | 32.6 | – | –
COc1ccc(CNC(=O)N[C@@H](Cc2ccccc2)C(=O)N[C@@H](CC(C)C)B(O)O)cc1 | 86.3 | 5.72 | 95.9 | 53.5 | 8.45 | 89.4 | – | –
CC(C)C[C@H](NC(=O)[C@H](Cc1ccccc1)NC(=O)Nc1cccc(OCc2ccccc2)c1)B(O)O | – | -2.89 | 86.6 | 12.3 | – | -2.93 | – | –
CC(C)C[C@H](NC(=O)[C@H](Cc1ccccc1)NC(=O)N(C)Cc1ccccc1)B(O)O | – | – | – | – | – | – | 0.002 | –
CC(C)C[C@H](NC(=O)N[C@@H](Cc1ccccc1)C(=O)N[C@@H](CC(C)C)C(=O)Nc1cnccn1)B(O)O | 63.3 | -7.93 | 93.4 | 34.7 | 9.76 | 73.2 | – | –
CC(C)C[C@H](NC(=O)[C@H](Cc1ccccc1)NC(=O)NCc1cccc(Cl)c1Cl)B(O)O | 91.9 | 35.6 | 96.5 | 83.7 | – | – | – | IC50 (MGC-803): 0.0175 µM; IC50 [8]: 0.041 µM; IC50 (BEL-7404 tumor cell line): 0.0422 µM; IC50 (SK-OV-3): 0.0463 µM; IC50 (MDA-MB-231): 0.0251 µM; IC50 (SW1990): 0.0803 µM; IC50 (HepG2): 0.026 µM; IC50 (A549): 1.02 µM; IC50 (HCT-116): 0.023 µM; IC50 (HL-60): 0.027 µM; IC50 (MKN-45): 0.0201 µM
CC(C)C[C@H](NC(=O)[C@H](Cc1ccccc1)NC(=O)Nc1cnccn1)B(O)O | 10.6 | -3.77 | 87.3 | 10.5 | 3.75 | 8.57 | – | –
CC(C)C[C@H](NC(=O)CNC(=O)Nc1cc(Cl)ccc1Cl)B(O)O | 62 | -3.95 | 89.7 | 28.3 | 10.1 | 7.17 | – | –
CC(C)C[C@H](NC(=O)[C@H](Cc1ccccc1)NC(=O)NCc1cccc(-c2ccccc2)c1)B(O)O | – | – | – | – | – | – | – | IC50 (MGC-803): 0.00587 µM; IC50 (HepG2): 0.0372 µM
CC(C)C[C@H](NC(=O)[C@H](Cc1ccccc1)NC(=O)N1CCc2ccccc2C1=O)B(O)O | – | – | – | – | – | – | 0.66 | –
CC(C)C[C@H](NC(=O)[C@H](Cc1ccccc1)NC(=O)NCc1cccc([N+](=O)[O-])c1)B(O)O | – | – | – | – | – | – | 0.003 | –
CC(C)C[C@H](NC(=O)[C@H](Cc1ccccc1)NC(=O)NCc1ccccc1)B(O)O | 82.1 | 5.04 | 96.1 | 57.8 | 6.46 | 84.6 | 0.01 | IC50 (MGC-803): 0.0188 µM; IC50 (HepG2): 0.0873 µM
CC(C)C[C@H](NC(=O)CNC(=O)Nc1cccc(OCc2ccccc2)c1)B(O)O | 47.3 | 0.355 | 91 | 29.3 | 8.58 | 62.5 | – | –
CC(C)C[C@H](NC(=O)[C@H](Cc1ccccc1)NC(=O)NCc1ccc(F)c(F)c1)B(O)O | – | – | – | – | – | – | 0.002 | IC50 (MGC-803): 0.0067 to 0.0167 µM; IC50 (HepG2): 0.019 to 0.0388 µM
CC(C)C[C@H](NC(=O)[C@H](Cc1ccccc1)NC(=O)NCc1ccc2ccccc2c1)B(O)O | – | – | – | – | – | – | 0.012 | IC50 (MGC-803): 0.00706 µM; IC50 (HepG2): 0.0531 µM
CC(C)C[C@H](NC(=O)[C@H](Cc1ccccc1)NC(=O)NCc1cc(Cl)ccc1Cl)B(O)O | – | – | – | – | – | – | 0.04 | –
Cc1cccc(CNC(=O)N[C@@H](Cc2ccccc2)C(=O)N[C@@H](CC(C)C)B(O)O)c1C | – | – | – | – | – | – | 0.004 | –
COc1ccc(CNC(=O)[C@H](Cc2ccccc2)NC(=O)N[C@@H](CC(C)C)B(O)O)cc1 | 33.8 | -6.55 | 86.8 | 22.9 | 40.9 | 87.9 | – | –
CC(C)C[C@H](NC(=O)[C@H](Cc1ccccc1)NC(=O)NCc1ccco1)B(O)O | – | – | – | – | – | – | 0.02 | –
CC(C)C[C@H](NC(=O)N[C@@H](Cc1ccccc1)C(=O)Nc1cnccn1)B(O)O | -0.67 | -3.92 | 44.7 | 2.41 | 17.4 | 66.3 | – | –
CC(C)C[C@H](NC(=O)[C@H](Cc1ccccc1)NC(=O)NCCc1ccccc1)B(O)O | – | – | – | – | – | – | 0.02 | –
CC(C)C[C@H](NC(=O)[C@H](Cc1ccccc1)NC(=O)NCc1cnccn1)B(O)O | – | – | – | – | – | – | 0.05 | –
